Experiment [1] deals with T1, IC-GPCR2 (Homo sapiens, UniProt Q8TDV5, S309L).
T1 construct: expressed in transfected cells
T1 sequence (Q8TDV5 1-335 S309L): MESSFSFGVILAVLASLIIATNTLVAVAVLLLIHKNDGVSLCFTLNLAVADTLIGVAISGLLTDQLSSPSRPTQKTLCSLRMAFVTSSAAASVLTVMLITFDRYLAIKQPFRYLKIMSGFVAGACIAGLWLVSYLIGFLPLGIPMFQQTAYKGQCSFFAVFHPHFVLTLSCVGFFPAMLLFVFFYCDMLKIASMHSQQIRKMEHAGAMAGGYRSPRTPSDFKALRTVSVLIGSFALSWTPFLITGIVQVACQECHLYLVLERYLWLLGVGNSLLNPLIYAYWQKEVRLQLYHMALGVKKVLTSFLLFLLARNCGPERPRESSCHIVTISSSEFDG
The experiment is described as follows: Stimulation of cAMP in CHO cell line stably expressing IC-GPCR2 (HTRF cAMP dynamic kit). It is filed as cell-based. To be noted: 3 μM compound; IC-GPCR2 stably expressing CHO cells; not included in Table 1. Summed up:
(§1)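 CHO cells stably expressing IC-GPCR2, with parental CHO as counter-screen, were exposed to compound (0.00003–10 μM) for 30 min in Ham's F12. Intracellular cAMP read by HTRF competitive immunoassay (665/620 nm ratio). Activity at 3 μM expressed as % of maximal signal from a reference agonist.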
(In general: Time-resolved FRET reads energy transfer from a long-lived donor to a nearby acceptor.)

Experiment [2] concerns the target T2, IC-GPCR2 (Homo sapiens, UniProt Q8TDV5).
T2 construct: expressed in transfected cells
T2 sequence (Q8TDV5 1-335 S309L): T1 sequence (Q8TDV5 1-335 S309L)
The experiment is described as above. It is filed as cell-based. The note with it: 3 μM compound; relative to maximal activity of 5-Ethyl-2-{4-[4-(4-tetrazol-1-yl-phenoxymethyl)-thiazol-2-yl]-piperidin-1-yl}-pyrimidine (=100%); IC-GPCR2 stably expressing CHO cells, 30 minutes. The gist of the method:
as §1

This is an account of results in patent US8846675B2, “N-linked heterocyclic receptor agonists for the treatment of diabetes and metabolic disorders” (Cymabay Therapeutics, Inc., priority 2007, dated 2014).

As to `COC(=O)c1cc(C)nc(N2CCC(n3ncc(COc4ccc(-n5cnnn5)nc4)n3)CC2)n1` [Example 79, Methyl 2-(4-(4-((6-(1H-tetrazol-1-yl)pyridin-3-yloxy)methyl)-2H-1,2,3-triazol-2-yl)piperidin-1-yl)-6-methylpyrimidine-4-carboxylate], in experiment [1], the “activity when tested at 3 μM (in words)” value is recorded as “did not exhibit activity”.
Turning to `Cn1cnc(S(=O)(=O)N2CCC(n3ncc(COc4ccc(-n5cnnn5)nc4)n3)CC2)c1` [Example 42, 5-((2-(1-(1-Methyl-1H-imidazol-4-ylsulfonyl)piperidin-4-yl)-2H-1,2,3-triazol-4-yl)methoxy)-2-(1H-tetrazol-1-yl)pyridine], the “activity when tested at 3 μM (in words)” value in experiment [1] is “did not exhibit activity”.
Same read-out and setting: the entry for `Cc1nc(C)c(S(=O)(=O)N2CCC(n3ncc(COc4ccc(-n5cnnn5)nc4)n3)CC2)s1` [Example 39, 5-(4-(4-((6-(1H-Tetrazol-1-yl)pyridin-3-yloxy)methyl)-2H-1,2,3-triazol-2-yl)piperidin-1-ylsulfonyl)-2,4-dimethylthiazole] is “did not exhibit activity”; for `Cn1nc(OCc2cnn(C3CCN(c4ncc(Cl)cn4)CC3)n2)cc1C(F)(F)F` [Example 97, 5-Chloro-2-{4-[4-(1-methyl-5-trifluoromethyl-1H-pyrazol-3-yloxymethyl)-[1,2,3]-triazol-2-yl]-piperidin-1-yl}-pyrimidine] it is “did not exhibit activity”.
Turning to `C[C@H](NC(=O)OC(C)(C)C)C(=O)N1CCC(n2ncc(COc3ccc(-n4cnnn4)nc3)n2)CC1` [Example 53, (S)-tert-Butyl 1-(4-(4-((6-(1H-tetrazol-1-yl)pyridin-3-yloxy)methyl)-2H-1,2,3-triazol-2-yl)piperidin-1-yl)-1-oxopropan-2-ylcarbamate], in experiment [1], the “activity when tested at 3 μM (in words)” value was “did not exhibit activity”.
Same read-out and setting: the entry for `Cc1noc(C)c1S(=O)(=O)N1CCC(n2ncc(COc3ccc(-n4cnnn4)nc3)n2)CC1` [Example 43, 4-(4-(4-((6-(1H-Tetrazol-1-yl)pyridin-3-yloxy)methyl)-2H-1,2,3-triazol-2-yl)piperidin-1-ylsulfonyl)-3,5-dimethylisoxazole] is “did not exhibit activity”.
With `COC(=O)Cc1cnc(N2CCC(n3ncc(COc4ccc(-n5cnnn5)nc4)n3)CC2)nc1` [Example 52, Methyl 2-(2-(4-(4-((6-(1H-tetrazol-1-yl)pyridin-3-yloxy)methyl)-2H-1,2,3-triazol-2-yl)piperidin-1-yl)pyrimidin-5-yl)acetate], in experiment [2], the “% activity at 3 μM” value worked out at 52.86%.
The same measure, in the same setting: the figure for `C[C@H](NC(=O)OC(C)(C)C)C(=O)N1CCC(n2ncc(COc3ccc(-n4cnnn4)nc3)n2)CC1` [Example 54, (S)-tert-Butyl 1-(4-(4-((6-(1H-tetrazol-1-yl)pyridin-3-yloxy)methyl)-2H-1,2,3-triazol-2-yl)piperidin-1-yl)-1-oxopropan-2-ylcarbamate] is 36.82%.
On the same count and under the same terms, the figure for `CCc1cnc(N2CCC(n3cc(COc4ccc(-n5cnnn5)cc4F)c(C(F)(F)F)n3)CC2)nc1` [Example 66, 5-Ethyl-2-(4-(4-((2-fluoro-4-(1H-tetrazol-1-yl)phenoxy)methyl)-3-(trifluoromethyl)-1H-pyrazol-1-yl)piperidin-1-yl)pyrimidine] is 80.00%; for `Cc1sc(OCc2cnn(C3CCN(c4ncc(Cl)cn4)CC3)n2)nc1-c1cccnc1` [Example 90, 2-((2-(1-(5-Chloropyrimidin-2-yl)piperidin-4-yl)-2H-1,2,3-triazol-4-yl)methoxy)-5-methyl-4-(pyridin-3-yl)thiazole] it is 13.60%; for `O=S(=O)(C1CC1)N1CCC(n2ncc(COc3ccc(-n4cnnn4)nc3)n2)CC1` [Example 41, 5-((2-(1-(Cyclopropylsulfonyl)piperidin-4-yl)-2H-1,2,3-triazol-4-yl)methoxy)-2-(1H-tetrazol-1-yl)pyridine] it is 42.63%.
For `CCOC(=O)c1cnc(N2CCC(n3ncc(COc4ccc(-n5cnnn5)nc4)n3)CC2)s1` [Example 81, Ethyl 2-(4-(4-((6-(1H-tetrazol-1-yl)pyridin-3-yloxy)methyl)-2H-1,2,3-triazol-2-yl)piperidin-1-yl)thiazole-5-carboxylate], the “% activity at 3 μM” value in experiment [2] is given as 32.98%.
Still for that read-out and setting: the figure for `Fc1cc(-n2cnnn2)ccc1OCc1cnn([C@H]2CCN(c3ncc(Cl)cn3)C[C@@H]2F)n1` (racemic) [Example 33, 5-Chloro-2-((trans)-3-fluoro-4-(4-((2-fluoro-4-(1H-tetrazol-1-yl)phenoxy)methyl)-2H-1,2,3-triazol-2-yl)piperidin-1-yl)pyrimidine] is 88.32%.
On the same count and under the same terms, the figure for `CCc1cnc(N2CCC(n3ncc(COc4ccc(S(C)(=O)=O)cc4F)n3)CC2)nc1` [Example 10, 5-Ethyl-2-{4-[4-(2-fluoro-4-methanesulfonyl-phenoxymethyl)-[1,2,3]triazol-2-yl]-piperidin-1-yl}-pyrimidine] is 71.04%; for `COc1ccc(-c2cnc(N3CCC(n4ncc(COc5ccc(-n6cnnn6)nc5)n4)CC3)nc2)cc1` [Example 80, 2-(4-(4-((6-(1H-tetrazol-1-yl)pyridin-3-yloxy)methyl)-2H-1,2,3-triazol-2-yl)piperidin-1-yl)-5-(4-methoxyphenyl)pyrimidine] it is 77.53%.
For the compound `O=C1CCCN1c1ccc(OCc2cnn(C3CCN(c4ncc(C(F)(F)F)cn4)CC3)n2)cc1` [Example 99, 1-(4-{2-[1-(5-Trifluoromethyl-pyrimidin-2-yl)-piperidin-4-yl]-2H-[1,2,3]triazol-4-ylmethoxy}-phenyl)-pyrrolidin-2-one], the “% activity at 3 μM” value in experiment [2] turned out to be 56.81%.
Still for that read-out and setting: the figure for `FC(F)(F)c1ccc(N2CCC(n3ncc(COc4ccc(-n5cnnn5)nc4)n3)CC2)nc1` [Example 82, 2-(4-(4-((6-(1H-tetrazol-1-yl)pyridin-3-yloxy)methyl)-2H-1,2,3-triazol-2-yl)piperidin-1-yl)-5-(trifluoromethyl)pyridine] is 64.90%; for `Fc1cc(-n2cnnn2)ccc1OCc1cnn([C@H]2CCN(c3ncc(C(F)(F)F)cn3)C[C@@H]2F)n1` (racemic) [Example 34, 2-((trans)-3-Fluoro-4-(4-((2-fluoro-4-(1H-tetrazol-1-yl)phenoxy)methyl)-2H-1,2,3-triazol-2-yl)piperidin-1-yl)-5-(trifluoromethyl)pyrimidine] it is 87.61%.
On the same count and under the same terms, the figure for `Cc1cccnc1C(=O)N1CCC(n2ncc(COc3ccc(-n4cnnn4)cc3F)n2)CC1` [Example 111, (4-(4-((2-Fluoro-4-(1H-tetrazol-1-yl)phenoxy)methyl)-2H-1,2,3-triazol-2-yl)piperidin-1-yl)(3-methylpyridin-2-yl)methanone] is 24.12%.
